# Legend:
# rat [1] = settings: Prenatal developmental toxicity study, other, Oral, Gavage/Intubation, dose end: 15 GD
# rat [2] = settings: Subchronic oral toxicity in rodents, Fischer, Feed, dose end: 13 week, group: systemic, systemic / clinical chemistry / thyroxine (t4) / thyroxine (t4), total + systemic / clinical chemistry / triiodothyronine (t3) / …
# rat [3] = settings: Subchronic oral toxicity in rodents, other, Feed, dose end: 13 week, group: systemic, systemic / pathology microscopic / stomach / erosion + systemic / pathology microscopic / stomach / inflammation + systemic / pathology …
# dog [4] = settings: Subchronic oral toxicity in nonrodent, beagle, Feed, dose end: 13 week, group: systemic, systemic / clinical chemistry / globulins / globulins + systemic / clinical chemistry / protein / protein + systemic / hematology / platelet…
# rat [5] = settings: Multigenerational reproductive toxicity study, other, Oral, Feed, dose end: 2 generation
# rat [6] = settings: Prenatal developmental toxicity study, other, Oral, Gavage/Intubation, dose end: 15 GD; remark: listed apart in the source
# rat [7] = settings: Subchronic oral toxicity in rodents, other, Gavage/Intubation, dose end: 90 day, group: systemic, systemic / in life observation / body weight / body weight + systemic / in life observation / body weight / body weight gain + systemic / …
# dog [8] = settings: Subchronic oral toxicity in nonrodent, beagle, Gavage/Intubation, dose end: 91 day, group: systemic, systemic / in life observation / body weight / body weight + systemic / in life observation / body weight / body weight gain + systemic / …
# dog [9] = settings: Chronic toxicity, beagle, Oral, Feed, dose end: 104 week, group: systemic
# mouse [10] = settings: Carcinogenicity, cd1, Oral, Feed, dose end: 104 week, group: systemic
# rat [11] = settings: Multigenerational reproductive toxicity study, sprague dawley, Oral, Feed, dose end: 2 generation
# rabbit = settings: Prenatal developmental toxicity study, new zealand white, Oral, Gavage/Intubation, dose end: 28 GD
# dog [12] = settings: Subchronic oral toxicity in nonrodent, beagle, Feed, dose end: 90 day, group: systemic
# rat [13] = settings: Developmental neurotoxicity study; long evans; Injection; Subcutaneous; dose end: 132 PND; group: cannot be grouped; systemic / pathology gross / brain / reduced size + systemic / pathology microscopic / brain / depletion cellular
# rat [14] = settings: Combined chronic toxicity/carcinogenicity; Oral; Gavage/Intubation; dose end: 104 week; group: systemic; systemic / in life observation / body weight / body weight gain + systemic / in life observation / water consumption / water consumption + …
# dog [15] = settings: Subchronic oral toxicity in nonrodent, beagle, Capsule, dose end: 13 week, group: systemic
# rat [16] = settings: Subchronic oral toxicity in rodents, sprague dawley, Gavage/Intubation, dose end: 13 week, group: systemic
# rat [17] = settings: Prenatal developmental toxicity study, Charles River COBS CD rats, Oral, Gavage/Intubation, dose end: 20 GD
# mouse [18] = settings: Combined chronic toxicity/carcinogenicity, cd1, Oral, Gavage/Intubation, dose end: 24 month, group: systemic
# dog [19] = settings: Chronic toxicity; beagle; Oral; Capsule; dose end: 52 week; group: systemic; systemic / in life observation / body weight / body weight gain + systemic / in life observation / clinical signs / salivation + systemic / …
# rat [20] = settings: Multigenerational reproductive toxicity study, other, Oral, Gavage/Intubation, dose end: 2 generation
# [21] = group: developmental, developmental / developmental malformation / bone / incomplete ossification + developmental / developmental malformation / bone / wavy + …
# [22] = group: maternal, systemic / in life observation / body weight / body weight gain + systemic / in life observation / food consumption / food consumption
# [23] = group: maternal, systemic / in life observation / body weight / body weight gain + systemic / in life observation / food consumption / food consumption + …
# [24] = group: offspring, systemic / organ weight / spleen / absolute + systemic / organ weight / spleen / relative to body weight + developmental / offspring …
# [25] = group: offspring, systemic / organ weight / spleen / absolute + systemic / organ weight / spleen / relative to body weight + systemic / organ weight / thymus…
# [26] = group: parental, systemic / in life observation / body weight / body weight + systemic / in life observation / clinical signs / general pallor
# [27] = group: developmental, developmental / developmental malformation / bone / wavy
# [28] = group: maternal, systemic / in life observation / body weight / body weight gain
# [29] = systemic / pathology microscopic / liver / [other] + systemic / clinical chemistry / alanine aminotransferase (alt/sgpt) / alanine …
# [30] = systemic / pathology microscopic / liver / [other] + systemic / in life observation / body weight / body weight gain + systemic / in life …
# [31] = systemic / pathology microscopic / liver / adenoma/carcinoma combined + systemic / pathology microscopic / liver / carcinoma + systemic / …
# [32] = systemic / pathology microscopic / liver / carcinoma + systemic / pathology microscopic / liver / adenoma/carcinoma combined + systemic / …
# [33] = group: offspring, systemic / in life observation / body weight / offspring (pup) weight
# [34] = group: parental, systemic / pathology microscopic / epididymis / hypospermia + systemic / pathology microscopic / testes / atrophy + systemic / pathology …
# [35] = group: developmental, developmental / developmental malformation / kidney / small renal papilla
# [36] = group: maternal, systemic / in life observation / clinical signs / body surface staining + systemic / in life observation / food consumption / food …
# [37] = systemic / clinical chemistry / cholesterol / cholesterol + systemic / clinical chemistry / albumin / albumin + systemic / in life …
# [38] = systemic / in life observation / clinical signs / watery stools
# [39] = systemic / organ weight / liver / absolute + systemic / in life observation / body weight / body weight gain + systemic / in life …
# [40] = group: developmental, systemic / in life observation / body weight / offspring (pup) weight
# [41] = group: maternal, systemic / in life observation / body weight / body weight gain + systemic / in life observation / clinical signs / salivation
# [42] = systemic / organ weight / ovary / absolute + systemic / organ weight / ovary / relative to body weight + systemic / organ weight / adrenal …
# [43] = group: offspring, systemic / in life observation / clinical signs / reduced body size
# [44] = group: parental, systemic / in life observation / body weight / body weight gain
smiles,measurement,setting,value
"CNC.O=C(O)COc1ccc(Cl)cc1Cl [2,4-D, Dimethylamine salt]",LOAEL,rat [1]; [21],100 mg/kg/day
same,NEL,rat [1]; [21],12.5 mg/kg/day
same,NOAEL,rat [1]; [21],50 mg/kg/day
same,LEL,"rat [1]; group: developmental, developmental / developmental malformation / general / [other]",50 mg/kg/day
same,LEL,rat [1]; [22],50 mg/kg/day
same,LOAEL,rat [1]; [22],50 mg/kg/day
same,NEL,rat [1]; [23],12.5 mg/kg/day
same,NOAEL,rat [1]; [23],12.5 mg/kg/day
same,LEL,rat [2],120 mg/kg/day
same,LOAEL,rat [2],120 mg/kg/day
same,NEL,rat [2],18.1 mg/kg/day
same,NOAEL,rat [2],18.1 mg/kg/day
"CCCCCCCCn1sc(Cl)c(Cl)c1=O [4,5-Dichloro-2-octyl-3(2H)-isothiazolone]",LEL,rat [3],60.7 mg/kg/day
same,LOAEL,rat [3],60.7 mg/kg/day
same,NEL,rat [3],32.5 mg/kg/day
same,NOAEL,rat [3],32.5 mg/kg/day
same,LEL,dog [4],45.9 mg/kg/day
same,LOAEL,dog [4],45.9 mg/kg/day
same,NEL,dog [4],10.1 mg/kg/day
same,NOAEL,dog [4],10.1 mg/kg/day
same,NEL,rat [5]; [24],10 mg/kg/day
same,NOAEL,rat [5]; [24],10 mg/kg/day
same,LEL,rat [5]; [25],20 mg/kg/day
same,LOAEL,rat [5]; [25],20 mg/kg/day
same,LOAEL,"rat [5]; group: parental, systemic / in life observation / body weight / body weight + systemic / in life observation / body weight / body weight gain",40 mg/kg/day
same,LEL,"rat [5]; group: parental, systemic / in life observation / body weight / body weight + systemic / in life observation / body weight / body weight gain + systemic / in…",40 mg/kg/day
same,NEL,rat [5]; [26],20 mg/kg/day
same,NOAEL,rat [5]; [26],20 mg/kg/day
same,LEL,rat [6]; [27],100 mg/kg/day
same,LOAEL,rat [6]; [27],100 mg/kg/day
same,NEL,rat [6]; [27],30 mg/kg/day
same,NOAEL,rat [6]; [27],30 mg/kg/day
same,LEL,rat [6]; [28],10 mg/kg/day
same,NEL,rat [6]; [28],< 10 mg/kg/day
same,LOAEL,"rat [6]; group: maternal, systemic / in life observation / clinical signs / defecation + systemic / in life observation / food consumption / food consumption",30 mg/kg/day
same,NOAEL,"rat [6]; group: maternal, systemic / in life observation / clinical signs / defecation + systemic / in life observation / food consumption / food consumption + …",10 mg/kg/day
CCC(CN1CCOCC1)[N+](=O)[O-] (configuration not stated) [4-(2-Nitrobutyl)morpholine],LEL,rat [7],10 mg/kg/day
same,LOAEL,rat [7],> 50 mg/kg/day
same,NEL,rat [7],5 mg/kg/day
same,NOAEL,rat [7],≥ 50 mg/kg/day
same,LEL,dog [8],25 mg/kg/day
same,LOAEL,dog [8],25 mg/kg/day
same,NEL,dog [8],10 mg/kg/day
same,NOAEL,dog [8],10 mg/kg/day
CCCCNC(=O)n1c(NC(=O)OC)nc2ccccc21 [Benomyl],LEL,dog [9]; [29],62.5 mg/kg/day
same,LOAEL,dog [9]; [29],62.5 mg/kg/day
same,NEL,dog [9]; [30],12.5 mg/kg/day
same,NOAEL,dog [9]; [30],12.5 mg/kg/day
same,LOAEL,mouse [10]; [31],> 750 mg/kg/day
same,NOAEL,mouse [10]; [31],≥ 750 mg/kg/day
same,LEL,mouse [10]; [32],75 mg/kg/day
same,NEL,mouse [10]; [32],< 75 mg/kg/day
same,LEL,rat [11]; [33],234 mg/kg/day
same,LOAEL,rat [11]; [33],234 mg/kg/day
same,NOAEL,rat [11]; [33],38 mg/kg/day
same,NEL,"rat [11]; group: offspring, systemic / in life observation / body weight / offspring (pup) weight + systemic / in life observation / clinical signs / reduced body size",38 mg/kg/day
same,LOAEL,"rat [11]; group: parental, systemic / pathology microscopic / epididymis / hypospermia",234 mg/kg/day
same,NOAEL,"rat [11]; group: parental, systemic / pathology microscopic / epididymis / hypospermia + systemic / in life observation / body weight / body weight + systemic / in …",38 mg/kg/day
same,LEL,rat [11]; [34],168 mg/kg/day
same,NEL,rat [11]; [34],28 mg/kg/day
same,LEL,rabbit; [35],180 mg/kg/day
same,LOAEL,rabbit; [35],180 mg/kg/day
same,NEL,rabbit; [35],90 mg/kg/day
same,NOAEL,rabbit; [35],90 mg/kg/day
same,LEL,rabbit; [36],180 mg/kg/day
same,LOAEL,rabbit; [36],180 mg/kg/day
same,NEL,rabbit; [36],90 mg/kg/day
same,NOAEL,rabbit; [36],90 mg/kg/day
same,LEL,dog [12]; systemic / clinical chemistry / cholesterol / cholesterol,12.5 mg/kg/day
same,LOAEL,dog [12]; systemic / clinical chemistry / cholesterol / cholesterol + systemic / clinical chemistry / alanine aminotransferase (alt/sgpt) / alanine …,37.5 mg/kg/day
same,NEL,dog [12]; [37],2.5 mg/kg/day
same,NOAEL,dog [12]; [37],12.5 mg/kg/day
COc1cc2c(c(OC)c1OC)-c1ccc(OC)c(=O)cc1[C@@H](NC(C)=O)CC2 [Colchicine],LEL,rat [13],0.4 mg/kg/day
same,LOAEL,rat [13],> 0.4 mg/kg/day
same,NEL,rat [13],< 0.4 mg/kg/day
same,NOAEL,rat [13],≥ 0.4 mg/kg/day
CC1(C)[C@H](C(=O)O[C@H](C#N)c2cccc(Oc3ccccc3)c2)[C@@H]1C(Br)C(Br)(Br)Br (some centres not stated) [Tralomethrin],LEL,rat [14],3 mg/kg/day
same,LOAEL,rat [14],3 mg/kg/day
same,NEL,rat [14],0.75 mg/kg/day
same,NOAEL,rat [14],0.75 mg/kg/day
same,LOAEL,dog [15]; systemic / hematology / erythrocyte (rbc) count differential / erythrocyte (rbc) + systemic / hematology / hemoglobin (hgb) / hemoglobin (…,10 mg/kg/day
same,LEL,dog [15]; [38],0.1 mg/kg/day
same,NEL,dog [15]; [38],< 0.1 mg/kg/day
same,NOAEL,dog [15]; systemic / in life observation / clinical signs / watery stools + systemic / hematology / erythrocyte (rbc) count differential / erythrocyte…,1 mg/kg/day
same,LOAEL,rat [16]; systemic / organ weight / liver / absolute,6 mg/kg/day
same,LEL,rat [16]; systemic / organ weight / liver / absolute + systemic / in life observation / body weight / body weight gain,6 mg/kg/day
same,NEL,rat [16]; [39],1 mg/kg/day
same,NOAEL,rat [16]; [39],1 mg/kg/day
same,LEL,rat [17]; [40],12 mg/kg/day
same,LOAEL,rat [17]; [40],> 12 mg/kg/day
same,NEL,rat [17]; [40],3 mg/kg/day
same,NOAEL,rat [17]; [40],≥ 12 mg/kg/day
same,LOAEL,"rat [17]; group: maternal, systemic / in life observation / body weight / body weight gain + reproductive / offspring survival early / birth index / live birth index",12 mg/kg/day
same,LEL,"rat [17]; group: maternal, systemic / in life observation / body weight / body weight gain + reproductive / offspring survival early / birth index / live birth index…",12 mg/kg/day
same,NEL,rat [17]; [41],3 mg/kg/day
same,NOAEL,rat [17]; [41],3 mg/kg/day
same,LEL,mouse [18]; [42],0.75 mg/kg/day
same,NEL,mouse [18]; [42],< 0.75 mg/kg/day
same,LOAEL,mouse [18]; systemic / pathology gross / skin / lesion(s) (nos),3 mg/kg/day
same,NOAEL,mouse [18]; systemic / pathology gross / skin / lesion(s) (nos) + systemic / in life observation / clinical signs / abnormal motor movement + systemic…,0.75 mg/kg/day
same,LEL,dog [19],3 mg/kg/day
same,LOAEL,dog [19],3 mg/kg/day
same,NEL,dog [19],1 mg/kg/day
same,NOAEL,dog [19],1 mg/kg/day
same,LEL,rat [20]; [43],0.75 mg/kg/day
same,LOAEL,rat [20]; [43],0.75 mg/kg/day
same,NEL,rat [20]; [43],< 0.75 mg/kg/day
same,NOAEL,rat [20]; [43],< 0.75 mg/kg/day
same,LEL,rat [20]; [44],3 mg/kg/day
same,LOAEL,rat [20]; [44],3 mg/kg/day
same,NEL,rat [20]; [44],0.75 mg/kg/day
same,NOAEL,rat [20]; [44],0.75 mg/kg/day

# Reference: EPA's ToxRefDB 2
